Measurements from US9650338B1 (priority 2016, dated 2017).

What was measured:
[1] = target: opiate receptor sites in the CNS; test: Competitive binding to opiate receptor sites in the CNS, rat brain, 3H-Naloxone
[2] = target: opiate receptor sites in the CNS; test: Competitive binding to opiate receptor sites in the CNS, mouse brain; settings: Brain of the mouse (Table 5, mean; spread in a separate column)
[3] = tested on: respiratory depression caused by LD50 of Promedol (Trimeperidine); test: Antagonism of respiratory depression caused by LD50 of Promedol; settings: rat, Promedol (Trimeperidine) 70 mg/kg (LD50)
[4] = tested on: analgesic effects of the ED99 of morphine; test: Antagonism of the analgesic effect of the ED99 of morphine, mechanical irritation of the tail; settings: rat, under skin injection, morphine 5 mg/kg (ED99)

CCC(=O)NC1CC(C)N(CCc2ccccc2)CC1C (stereo not shown) [N-[2,5-dimethyl-1-(2-phenylethyl)piperidin-4-yl]propanamide]
IC50 ([1]; Brain of the rate (Table 5, mean; spread in a separate column), read-out: IC50): 0.12 nM
IC50 ([1]; brain of the rat, 3H-Naloxone (Table 4), read-out: Affinity IC50): 0.12 nM
IC50 [2]: 0.1 nM
Median Antagonistic activity AD50 (parenthetical is range) [3]: 5.1 (3.4-7.8) mg/kg
Median Antagonistic activity AD50 (parenthetical is range) [4]: 1.2 (0.8-1.64) mg/kg

C=CCN1CC[C@]23c4c5ccc(O)c4O[C@H]2C(=O)CC[C@@]3(O)[C@H]1C5 [naloxone, 17-allyl-4,5a-epoxy-3,14-dihydroxymorphinan-6-one, reference compound]
Median Antagonistic activity AD50 (parenthetical is range) [3]: 1.8 (1.1-3.2) mg/kg
Median Antagonistic activity AD50 (parenthetical is range) [4]: 0.3 (0.22-0.39) mg/kg
